“Also recorded” adds a separate entry of the source. Read-outs that look alike come from different tables or passages of the source.
What was measured:
[1] = biological target: α-glucosidase (EC 3.2.1.20) (Saccharomyces cerevisiae, UniProt P53341); assay: α-Glucosidase inhibitory assay (pNPG substrate); assay type: biochemical; conditions: in vitro
Description: The α-glucosidase inhibitory assay was performed according to a slightly modified method previously reported[21]^,[22]. In brief, a series of reaction solutions, including a fixed amount of α-glucosidase (10 unit/mL 3.75 µL), different concentrations of inhibitors (the tested compounds or positive controls, 37.5 µL), and sodium phosphate buffer (PBS, […], 0.1 M, pH 6.8), were incubated at 37 °C for 10 min. To initiate the reaction, 112.5 µL of pNPG (6.0 mM, as a substrate) was added into the pre-incubated mixtures, and the final volume of reaction system was kept at 750 µL. The p-nitrophenol released from pNPG substrate was used as the target substance to quantify the enzymatic activity. […] The negative control was prepared by adding PBS instead of α-glucosidase, the blank was prepared by adding solvent instead of tested compounds, and the inhibition rate was calculated as the following Equation (1). (1) (ODcontrol−ODcontrol blank)−(ODtest−ODtest blank)/ODcontrol−ODcontrol blank×100%

[2] = Sucrose-loading test (postprandial blood glucose); assay type: in vivo, Kunming mice; conditions: mice, 20 mg/kg by gavage, sucrose 2.5 g/kg, 0–120 min
Description: The carbohydrate loading test was conducted according as Kato et al.[23] and Han et al.[24] reported, with slight modifications. Fifteen male Kunming mice (35–40 g) after an overnight fast were randomly divided into three groups (five mice per group). […] A blank control group was loaded with 0.5% CMC–Na solution only. The blood samples were collected from the mice’s tail vein at 0, 15, 30, 60, 90, and 120 min, and the blood glucose levels were determined by a glucose detection kit.

[3] = biological target: T1, α-glucosidase (Saccharomyces cerevisiae, UniProt P53341); assay: Circular dichroism measurement; assay type: binding; conditions: 7u 0–4 µM, α-glucosidase 2 µM, 25 °C
T1 sequence (P53341 whole entry): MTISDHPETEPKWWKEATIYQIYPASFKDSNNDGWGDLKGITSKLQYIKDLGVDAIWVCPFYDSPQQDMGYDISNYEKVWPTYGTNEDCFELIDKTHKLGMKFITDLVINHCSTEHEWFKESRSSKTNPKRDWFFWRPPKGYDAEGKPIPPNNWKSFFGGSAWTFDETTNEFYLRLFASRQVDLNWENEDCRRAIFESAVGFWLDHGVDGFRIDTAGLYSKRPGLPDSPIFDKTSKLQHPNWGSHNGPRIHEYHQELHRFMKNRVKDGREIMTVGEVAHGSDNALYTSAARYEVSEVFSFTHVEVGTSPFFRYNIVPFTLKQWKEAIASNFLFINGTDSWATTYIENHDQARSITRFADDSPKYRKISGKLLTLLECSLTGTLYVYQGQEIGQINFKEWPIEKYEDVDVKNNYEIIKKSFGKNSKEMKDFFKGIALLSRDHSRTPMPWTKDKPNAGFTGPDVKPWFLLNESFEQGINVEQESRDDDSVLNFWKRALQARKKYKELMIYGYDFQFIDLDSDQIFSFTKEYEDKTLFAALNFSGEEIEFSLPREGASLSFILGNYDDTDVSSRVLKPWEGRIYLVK
Description: The CD measurements of α-glucosidase in the presence of compound 7u were conducted in far–UV region (190–250 nm), under nitrogen environment using a 1.0 mm path length cuvette. The concentration of α-glucosidase was maintained constant (2 µM) while the 7u concentration was varied as 0, 1, 2, and 4 µM. All observed CD spectra were recorded in 0.1 M PBS (pH 6.8) at 25 °C[13]^,[31].

[4] = biological target: T1, α-glucosidase; assay: Kinetic analysis of inhibition type (Lineweaver–Burk / Michaelis–Menten); assay type: biochemical
Description: To further explore the inhibitory characteristic of this type of compounds, kinetic studies of the selected compound 7u were performed[3]^,[13]^,[26]. Different final concentrations (0.5, 1, 2, 4, and 8 µM) of the inhibitor 7u around the IC50 values were chosen. The concentration of α-glucosidase was kept at 1 µM, and the pNPG concentrations varied from 2.0 to 12.0 mM in the absence and presence of compound 7u. The type of inhibition was analyzed on the basis of the Michaelis–Menten constant (Km) and maximal rate (Vmax) of the enzyme. The parameters were determined via Lineweaver–Burk plots, which was obtained by plotting enzyme reaction velocity (ν) and substrate (pNPG), namely, 1/ν versus 1/[pNPG]. The secondary plot slope against [7u] was also determined. The protein concentration was determined according to the Bradford method[27] using bovine serum albumin as the standard.

[5] = biological target: T1, α-glucosidase; assay: Synchronous fluorescence spectra; assay type: binding; conditions: 7u 0–6 µM, 25 °C
Excerpt: (§1) The synchronous fluorescence spectra of α-glucosidase in the absence and presence of compound 7u were scanned by setting the excitation and emission wavelength intervals (Δλ) at 15 and 60 nm, respectively. To eradicate the probability of re-absorption and inner filter effects in UV absorption, all of the fluorescence data were corrected for absorption of exciting light and emitted light, based on the Equation S1[3]^,[13].

[6] = test system: intestinal α-glucosidase; assay: Everted intestinal sleeve assay; set-up: species or system Sprague–Dawley rats
Description: ^1H NMR and ^13 C NMR spectra were carried out using a 500 MHz Avance spectrometer (Bruker, USA) or a Varian Mercury 400 MHz spectrometer. Chemical shifts were measured relative to the residual solvent peaks of CDCl3 with tetramethylsilane as the internal standard. High-resolution mass spectra were recorded on an AB SCIEX Triple TOF 5600+ spectrometer. The in vitro inhibitory activity and kinetic assay of α-glucosidase were measured by a microplate reader (Synergy HTX, BioTek Instruments Inc., Winooski, VT, USA). Fluorescence spectra were conducted on a spectrofluorometer (LS55, Perkin Elmer Inc., Waltham, MA, USA). […] Titration microcalorimetry measurement conducted on a Nano-ITC SV instrument (TA Instruments Ltd., UK). The surgeries were performed under anesthesia and all efforts were made to minimise animal suffering. The blood glucose levels were determined via a glucose detection kit (Robio Co., Ltd., Shanghai, China). […] The concentrations of glucose in the soaking solution and intestinal sleeve were detected using S-10 biosensor analyzer (Sieman Technology Co., Ltd., Shenzhen, China). All reaction progress was monitored by thin-layer chromatography (TLC) on silica gel GF254 (Qingdao Haiyang Chemical Co., Ltd., Qingdao, China) with ultraviolet detection. Reagents were purchased from commercial sources (Bodi Chemical Co., Ltd., Tianjin, China; Aladdin Industrial Co., Ltd., Shanghai, China), and used as received. α-Glucosidase (EC 3.2.1.20, Sigma-Aldrich Chemical, St. Louis, MO, USA); 4-nitrophenyl-α-D-glucopyranoside (pNPG) (99%, Macklin Biochemical Co., Ltd, Shanghai, China).
After a 12-h fasting, the jejunum of 200–220 g Sprague-Dawley […] was obtained. Then the proximal jejunum was flushed with pre-cold isotonic saline (4 °C) and cut into 3 cm-long segments. Each segment was weighed separately, everted and both ends were secured by tying knots. Then the sleeves were incubated (90 min at 37 °C) in mammalian Ringer’s solution containing sucrose (1.5 mM) and an appropriate concentration of the inhibitor (0.17 mM). Following the incubation, the concentrations of glucose in the soaking solution and intestinal sleeves were tested with biosensor analyzer (S-10). The total glucose concentration was calculated as glucose per gram of gut weight (mmol/g).

[7] = biological target: T1, α-glucosidase; assay: Isothermal titration calorimetry; assay type: binding; conditions: ITC, 25 °C
Description: Titration of the compound 7u into the α-glucosidase was performed at 25 °C. All the solutions were prepared in 0.1 M PBS (pH 6.8). The α-glucosidase solution (2.5μM) was placed in the 1.3 ml sample cell of the calorimeter, and the injection syringe was loaded with the solution of 7u (30μM, in 0.05% DMSO). The solution of compound 7u was titrated into the sample cell at 25 °C as a progression of 25 injections of 10μL. The time delay between each two injections was 300 s. To ensure comprehensive mixing, all the sample was stirred at a speed of 300 rpm during experiment. The control experiments included the titration of the compound 7u solution into 0.1 M PBS (pH 6.8)[33–35].

[8] = biological target: T1, α-glucosidase; assay: Fluorescence quenching and van't Hoff thermodynamics; assay type: binding; conditions: for ΔG^o: van't Hoff
Description: The steady state fluorescence emission spectra, were recorded between 300 and 500 nm at the excitation wavelength of 280 nm at three different temperatures (25, 31 and 37 °C), and both the excitation and emission slits were set at 2.5 nm. Compound 7u at different concentrations (from 0 to 6 µM) were added into the 3.0 ml solution containing a fixed amount of α-glucosidase (2μM). All of the mixtures were held for 5 min to equilibrate before measurements. The fluorescence spectra of buffer were subtracted as the background fluorescence.
as §1

[9] = biological target: T1, α-glucosidase; conditions: cited from earlier work

Chain of α-glucosidase (EC 3.2.1.20) (P53341 whole entry): as above

CC(=O)c1cc(Br)c(OC(=O)CCCCBr)c(Br)c1O [7h]
α-glucosidase inhibitory activity (in words) [1]: lost the activity

CC(=O)c1cc(Br)c(OC(=O)c2ccccc2[N+](=O)[O-])c(Br)c1O [7u]
effect on postprandial blood glucose levels ([2]; 20 mg/kg): significantly attenuated postprandial blood glucose in mice; also recorded: obvious repressive effect on blood glucose concentrations at peaked 15 min
CD negative bands at 209 and 220 nm [3]: both intensity of the negative bands decreased
Vmax ([4]; 7u 1 µM): 1.39 ± 0.02 µM/min
Vmax ([4]; 7u 2 µM): 1.24 ± 0.01 µM/min
Vmax ([4]; 7u 4 µM): 1.04 ± 0.01 µM/min
Vmax ([4]; 7u 8 µM): 0.84 ± 0.02 µM/min
type of inhibition ([4]; Lineweaver–Burk plot): mixed-type inhibition
shift of maximum emission wavelength of Tyr residues ([5]; Δλ = 15 nm): No evident shift
shift of maximum emission wavelength of Trp residues ([5]; Δλ = 60 nm): noticeable red shift (from 277.5 to 286.5 nm)
inhibitory activity on intestinal α-glucosidase compared with acarbose ([6]; 0.17 mM): better than that of acarbose
glucose concentration in the solution outside the intestinal sleeves ([6]; 0.17 mM inhibitor, sucrose 1.5 mM): decreased the glucose concentrations in the solution present outside the intestinal sleeves
total concentration of glucose ([6]; 0.17 mM inhibitor, sucrose 1.5 mM, 5–90 min, versus blank): much lower than that of the blank
glucose concentration in the intestinal sleeves ([6]; 0.17 mM inhibitor, sucrose 1.5 mM, versus blank): lower than that of blank
ΔG [7]: –39.04 kJ·mol^−1
ΔH [7]: -23.901 kcal/mol
ΔS [7]: –204.50 J·mol^−1·K^−1
ΔG ([7]; listed as 7 u): -9.331 kcal/mol
ΔS ([7]; listed as 7 u): −204.50 J·mol^−1·K^−1
KSV (quenching constant) ([8]; 25 °C): 5.00 ± 0.04 × 10^4 L·mol^−1
n (number of binding sites) ([8]; 25 °C): 1.23
ΔG^o ([8]; 25 °C): -7.698 ± 0.014 kcal/mol
KSV (quenching constant) ([8]; 31 °C): 4.74 ± 0.03 × 10^4 L·mol^−1
n (number of binding sites) ([8]; 31 °C): 1.19
ΔG^o ([8]; 31 °C): -7.488 ± 0.0072 kcal/mol
KSV (quenching constant) ([8]; 37 °C): 4.31 ± 0.02 × 10^4 L·mol^−1
n (number of binding sites) ([8]; 37 °C): 1.15
ΔG^o ([8]; 37 °C): -7.28 ± 0.0048 kcal/mol
quenching mechanism ([8]; KSV versus temperature): static quenching mechanism
Kq ([8]; fluorescence quenching): ~10^12 L·mol^−1·s^−1

C[C@H]1O[C@H](O[C@H]2[C@H](O)[C@@H](O)[C@@H](O[C@H]3[C@H](O)[C@@H](O)C(O)O[C@@H]3CO)O[C@@H]2CO)[C@H](O)[C@@H](O)[C@@H]1N[C@H]1C=C(CO)[C@@H](O)[C@H](O)[C@H]1O (stereo partly shown) [Acarbose, acarbose, reference compound]
effect on postprandial blood glucose levels [2]: at lower level than the model group

CC(C)=CCC/C(C)=C/Cc1c(O)cc(O)c(C(=O)/C=C/c2ccc(O)cc2)c1O [compound 1, 3′-geranylchalconaringenin]
inhibition activity against α-glucosidase compared with acarbose ([9]; ref Sun et al. 12): superior inhibition activity against α-glucosidase than acarbose

O=c1cc(-c2ccc(O)cc2)oc2cc(O)cc(O)c12 [compound 2, apigenin]
inhibition activity against α-glucosidase compared with acarbose ([9]; ref Zeng et al. 13): superior inhibition activity against α-glucosidase than acarbose

CC(=O)c1cc(C)c(O)cc1O [compound 3, 2,4-dihydroxy-5-methylacetophenone]
α-glucosidase inhibitory activity (in words) [1]: considerable inhibitory activity against α-glucosidase in prescreen
